Assay results from US8940894B2, “Aminothiazole compounds as kinase inhibitors and methods of using the same” (AB Science, priority 2007, dated 2015).

What was measured:
[1] = behaviour of the polymorph form at relative humidity (storage); format: physicochemical; conditions: at 80% relative humidity
[2] = thermodynamic stability of the polymorph form versus temperature; format: physicochemical; conditions: at temperatures below 200° C.

state of the polymorph form under humidity [1]: remains, dry | thermodynamic stability of the polymorph form [2]: thermodynamically stable
Structure (SMILES): CS(=O)(=O)O.Cc1ccc(NC(=O)c2ccc(CN3CCN(C)CC3)cc2)cc1Nc1nc(-c2cccnc2)cs1 [(VI), 4-(4-Methyl-piperazin-1-ylmethyl)-N-[4-methyl-3-(4-pyridin-3-yl-thiazol-2-ylamino)-phenyl]-benzamide methanesulfonate]
